Data taken from patent US9573972B2, “Nurotoxic sterol glycosides” (priority 2008, dated 2017).
Marks after values point to notes of the source that are not given here.

Test system: Heat shock protein-70
Assay: Anti-Hsp-70 immunofluorescence
Type: in vivo, mouse
Conditions: for Anti-Hsp-70 (VHLsc), change: ventral horn lumbar spinal cord; for Anti-Hsp-70 (VHLsc), change / Anti-Hsp-70 (VHTsc): SG-fed vs control; for Anti-Hsp-70 (VHTsc): ventral horn thoracic spinal cord
Experimental: Tissue-mounted slides were processed for fluorescence microscopy as follows: Sections were rinsed in coplin jars for 45 minutes at room temperature (RT) in three changes of PBS. Sections were then incubated at RT for 30 minutes in a blocking permeabilization solution made of 5% normal goat serum (NGS), 5% normal rabbit serum (NRS) or 5% BlokHen II (Ayes Labs, Inc., Tigard, Oreg.), 0.05% Triton X-100 and PBS. Subsequently, the blocking solution was tipped off and the slides were rinsed in PBS for 2 minutes. Sections were then incubated overnight in a humidified chamber at 4° C. with a PBS buffered solution that contained 1% NGS or 1% NRS, 1% bovine serum albumin (BSA) and one of the following primary antibodies: (a) rabbit anti-human/mouse ATF-3 (H-90) IgG (polyclonal, 1:500; Santa Cruz Biotechnology, Inc., Santa Cruz, Calif.), (b) anti-activated caspase-3 IgG (monoclonal, 1:250; Chemicon International, Temecula, Calif.) (see FIG. 9), (c) goat antihuman/mouse choline acetyl transferase (ChAT) IgG (polyclonal, 1:100; Chemicon International, Temecula, Calif.) (see FIG. 6), (d) rabbit anti-mouse glial fibrillary acidic protein IgG (polyclonal, 1:250; GeneTex Inc., San Antonio, Tex.) (see FIG. 7), (e) rabbit antihuman/mouse ionized calcium binding adaptor molecule 1 (IBA-1) IgG (polyclonal, 1:500; Wako Pure Chemical Industries, Ltd, Richmond, Va.), (f) mouse anti-human/mouse clone AT8 PHF-1 Tau (monoclonal, 1:200; Pierce Biotechnology Inc., Rockford, Ill.), (g) rabbit anti-human/mouse TAR DNA-binding protein 43 (TDP43) (1:100; ProteinTech Group Inc., Chicago, Ill.) (See FIG. 14), (h) chicken anti-human/mouse β-tubulin 3 (TuJ1 antigen) (polyclonal, 1:100, Ayes Labs, Inc., Tigard, Oreg.), (i) rabbit anti-mouse tyrosine hydroxylase (polyclonal, 1:500, Chemicon International, Temecula, Calif. or polyclonal 1:1000, Affinity BioReagents, Golden, Colo.) (FIG. 10), (j) rabbit anti human/mouse anti-pJunscr73 IgG (polyclonal, 1:200; Chemicon International, Temecula, Calif.), (k) rabbit anti human/mouse anti-HSP-70 IgG (polyclonal, 1:200; Chemicon International, Temecula, Calif.), or (1) rabbit anti human/mouse anti-HSP-25 IgG (polyclonal, 1:100; Chemicon International, Temecula, Calif.). In each experiment, additional slides were incubated with the primary antibody and the secondary antibody omitted or with secondary antibody and primary antibody omitted to test for nonspecific staining. Where appropriate, positive control slides (Alzheimer's disease patient entorhinal cortex, obtained from Drs. Claudia Schwab and Patrick McGeer of the Kinsmen Laboratory, University of British Columbia, Vancouver, BC, Canada) were also processed as above for comparison. Following overnight incubation with the primary antibody, slides were rinsed for 45 minutes at RT in three changes of PBS. Immediately after, the slides were incubated in black chambers that excluded light for 1 hour at RT with the secondary antibody solutions containing 5% NGS or 5% NRS and fluorophore conjugated antibodies: AlexaFluor 568 goat anti-rabbit or rabbit anti-goat IgG (monoclonal, 1:250, absorption: 578 nm, emission 603 nm; Molecular Probes, Eugene, Oreg.), AlexaFluor 546 goat antirabbit or rabbit anti-goat IgG (monoclonal; 1:250, absorption 556 nm, emission 573 nm; Molecular Probes, Eugene, Oreg.) or fluorescein isothiocyanate (FITC) goat anti-rabbit IgG (polyclonal, 1:500, absorption: 494 nm, emission: 518 nm; Sigma, Saint Louis, Mo.). The secondary antibody solution was tipped off and slides were rinsed for 15 minutes in three changes of PBS. Tissue sections were cover-slipped with a 4′6 diamidino-2-phenylindole (DAPI) fluorescent mounting media (Vectashield, absorption: 360 nm, emission: 460 nm, Vector Laboratories, Burlington, ON, Canada) in order to label the nuclei and stored at 4° C. in dark slide boxes to retard bleaching of the fluorescent labels. […]

[1] = SG-fed group over time (35 to 52 wk)

CC[C@H](/C=C/[C@@H](C)[C@H]1CC[C@H]2[C@@H]3CC=C4C[C@@H](O[C@@H]5O[C@H](CO)[C@@H](O)[C@H](O)[C@H]5O)CC[C@]4(C)[C@H]3CC[C@]12C)C(C)C [SG, Stigmasterol β-D-Glucopyranoside]
Anti-Hsp-70 Lsc over time [1]: Anti-Hsp-70 Lsc (SG-fed group over time) (ns, p = 0.1223)
Anti-Hsp-70 Tsc over time [1]: Anti-Hsp-70 Tsc (SG-fed group over time) (ns, p = 0.8319)
Anti-Hsp-70 (VHLsc), change (Time-point 1 (35 wk)): Anti-Hsp-70: +1036%***
Anti-Hsp-70 (VHLsc), change (Time-point 2 (52 wk)): Anti-Hsp-70: +425%*
Anti-Hsp-70 (VHTsc) (Time-point 1 (35 wk)): Anti-Hsp-70: (ns, p = 0.9697)
Anti-Hsp-70 (VHTsc) (Time-point 2 (52 wk)): Anti-Hsp-70: (ns, p = 0.2793)
